Test results published in US6291231A, “Microorganism producing terphenyl compounds” (Shionogi & Co., Ltd., priority 1996, dated 2001).
Converted amounts (≈) assume the structure as drawn.

Columns and labels:
BDF1 mouse splenocytes [1] = test: Suppression of the lipopolysaccharide (LPS) reaction of mouse splenocytes, 3H-thymidine uptake; assay type: cell-based; settings: for Radioactivity cpm ± SD: 3H-thymidine
Experimental: To each well of a 96 well microtiter plate were added 5×10^5 BDF1 mouse splenocytes suspended in 0.1 ml of 10% fetal calf serum-fortifed RPMI 1640 medium (2 mM of sodium bicarbonate, 50 units/ml of penicillin, 50 μg/ml of streptomycin and 5×10^-5 M of 2-mercaptethanol were added) were added. To each well, 5 μg/ml of Con A as a mitogen and the compound (I-1), (I-2) or (I-3) of a pre-determined concentration were added so that a final volume of each well reached 0.2 ml. […] The splenocytes in the 96 well microtiter plate were cultivated at 37° C. for 48 hours in an incubator keeping the humidity 100%, carbon dioxide 5% and air 95%. The cells were pulse-labeledwith 3H-thymidine (18.5 Kbq/well) before 6 hours of harvest. After the cultivation, the cells were collected by a cell harvester and radioactivity taken in the cells was measured for being used as an indicator of a cell proliferation activity. Con A-free (--Con A) medium was used as a control.
By the same method as described in above 1-1 except that lipopolysaccharide (LPS, 10 μg/ml) was used in spite of concanavalin A, a suppression of the reaction was examined. LPS-free (--LPS) medium was used as a control.

[2] = Solubility (characterisation data); assay type: physicochemical
BDF1 mouse splenocytes [3] = test: Suppression of the concanavalin A (Con A) mitogen reaction of mouse splenocytes, 3H-thymidine uptake; assay type: cell-based; settings: for Radioactivity cpm ± SD: 3H-thymidine
Experimental: To each well of a 96 well microtiter plate were added 5×10^5 BDF1 mouse splenocytes suspended in 0.1 ml of 10% fetal calf serum-fortifed RPMI 1640 medium (2 mM of sodium bicarbonate, 50 units/ml of penicillin, 50 μg/ml of streptomycin and 5×10^-5 M of 2-mercaptethanol were added) were added. To each well, 5 μg/ml of Con A as a mitogen and the compound (I-1), (I-2) or (I-3) of a pre-determined concentration were added so that a final volume of each well reached 0.2 ml. Each compound of the present invention was dissolved in dimethylsulfoxide (DMSO) and diluted with the above RPMI 1640 medium to adjust the final concentration to 100 ng/ml or less. The splenocytes in the 96 well microtiter plate were cultivated at 37° C. for 48 hours in an incubator keeping the humidity 100%, carbon dioxide 5% and air 95%. The cells were pulse-labeledwith 3H-thymidine (18.5 Kbq/well) before 6 hours of harvest. After the cultivation, the cells were collected by a cell harvester and radioactivity taken in the cells was measured for being used as an indicator of a cell proliferation activity. Con A-free (--Con A) medium was used as a control.

[4] = system: CCFR-CEM human leukemia cell; test: Cell proliferation inhibition (MTT), CCFR-CEM; assay type: cell-based
Experimental: (§1) To each well of a 96 well microtiter plate, the pre-determined number of various cell strains (0.1 ml) were added and pre-cultivated for a day under the same cultivation conditions as Experiment 1. To each well, 0.1 ml of the compound (I-1) was added so that the concentration was in the range of 0-10,000 ng/ml. After the cultivation for 3-4 days, 25 μl of 6 mg/ml MTT [3-(4,5-dimethylthiazol-2-yl)-2,5-diphenyltetrazolium bromide] (Sigma) solution was added to each well and the cells were cultivated at 37° C. for 4 hours under the same conditions as above. After the cultivation, 50 μl of 0.02 N hydrochloric acid solution of 20% sodium dodecyl sulfate was added to formazan generated and left at 37° C. for 24 hours for dissolving formazan. An absorption intensity (OD) of formazan generated in proportion to the number of living cells was measured with an immunoreader (InterMed) equipped with a 570 nm filter (The Journal of Immunological Method, No.65, p.55-63, 1983). The 50% inhibitory concentration of a cell proliferation (IC 50) was calculated from a correlation between a concentration of the compound (I-1) and absorption intensity.

[5] = system: Lu-99 human large cell lung cancer; test: Cell proliferation inhibition (MTT), Lu-99; assay type: cell-based
Experimental: as §1

BDF1 mouse splenocytes [6] = test: Suppression of the concanavalin A (Con A) mitogen reaction of mouse splenocytes, 3H-thymidine uptake; assay type: cell-based; parameters: Radioactivity cpm ± SD: dose or concentration left out as unconfirmed
P388 mouse leukemia cell = test: Cell proliferation inhibition (MTT), P388; assay type: cell-based
Experimental: as §1

[7] = system: CCD-19Lu human normal pneumocyte; test: Cell proliferation inhibition (MTT), CCD-19Lu; assay type: cell-based
Experimental: as §1

COc1cc(-c2ccc(O)cc2)c(OC)c(O)c1-c1ccc(OCC=C(C)C)c(O)c1 [Compound I-1, 3',6'-dimethoxy-4-(3-methyl-2-butenyloxy) -[1,1':4',1"] terphenyl-3,2',4"-triol]
Radioactivity cpm ± SD (BDF1 mouse splenocytes [1]; LPS 10 μg/ml, compound 0.98 ng/ml): 153396 ± 6123 cpm | Radioactivity cpm ± SD (BDF1 mouse splenocytes [1]; LPS 10 μg/ml, compound 3.91 ng/ml): 88405 ± 10394 cpm | Radioactivity cpm ± SD (BDF1 mouse splenocytes [1]; LPS 10 μg/ml, compound 15.6 ng/ml): 32548 ± 315 cpm | Radioactivity cpm ± SD (BDF1 mouse splenocytes [1]; LPS 10 μg/ml, compound 62.5 ng/ml): 16070 ± 944 cpm | Radioactivity cpm ± SD (BDF1 mouse splenocytes [1]; LPS 10 μg/ml, compound 250.0 ng/ml): 15046 ± 344 cpm | inhibition at 0.00098 µg/mL (BDF1 mouse splenocytes [1]; Mus musculus, Splenocyte, 48 h, LPS 10 μg/ml, compound 0.98 ng/ml): 0.3% | inhibition at 0.00391 µg/mL (BDF1 mouse splenocytes [1]; Mus musculus, Splenocyte, 48 h, LPS 10 μg/ml, compound 3.91 ng/ml): 43.4% | inhibition at 0.0156 µg/mL (BDF1 mouse splenocytes [1]; Mus musculus, Splenocyte, 48 h, LPS 10 μg/ml, compound 15.6 ng/ml): 80.4% | inhibition at 0.0625 µg/mL (BDF1 mouse splenocytes [1]; Mus musculus, Splenocyte, 48 h, LPS 10 μg/ml, compound 62.5 ng/ml): 91.3% | inhibition at 0.25 µg/mL (BDF1 mouse splenocytes [1]; Mus musculus, Splenocyte, 48 h, LPS 10 μg/ml, compound 250.0 ng/ml): 92% | IC50 (BDF1 mouse splenocytes [1]; Splenocyte, LPS reaction of mouse splenocytes): 4.5 ng/mL (≈ 10.7 nM) | Suppressive effect on the LPS reaction of mouse splenocytes (in words) (BDF1 mouse splenocytes [1]; depends on the compound concentration): potent suppressive effect | Solubility in acetone, ethyl acetate and chloroform ([2]; acetone, ethyl acetate, chloroform): soluble | Solubility in water ([2]; water): insoluble | Radioactivity cpm ± SD (BDF1 mouse splenocytes [3]; Con A 5 μg/ml, compound 0.25 ng/ml, 48 h): 292470 ± 542 cpm | Radioactivity cpm ± SD (BDF1 mouse splenocytes [3]; Con A 5 μg/ml, compound 0.98 ng/ml, 48 h): 210046 ± 3288 cpm | Radioactivity cpm ± SD (BDF1 mouse splenocytes [3]; Con A 5 μg/ml, compound 3.91 ng/ml, 48 h): 56871 ± 1554 cpm | Radioactivity cpm ± SD (BDF1 mouse splenocytes [3]; Con A 5 μg/ml, compound 15.6 ng/ml, 48 h): 11366 ± 372 cpm | Radioactivity cpm ± SD (BDF1 mouse splenocytes [3]; Con A 5 μg/ml, compound 62.5 ng/ml, 48 h): 6411 ± 246 cpm | inhibition at 0.00025 µg/mL (BDF1 mouse splenocytes [3]; Mus musculus, Splenocyte, 48 h, Con A 5 μg/ml, compound 0.25 ng/ml): -5.6% | inhibition at 0.00098 µg/mL (BDF1 mouse splenocytes [3]; Mus musculus, Splenocyte, 48 h, Con A 5 μg/ml, compound 0.98 ng/ml): 24.5% | inhibition at 0.00391 µg/mL (BDF1 mouse splenocytes [3]; Mus musculus, Splenocyte, 48 h, Con A 5 μg/ml, compound 3.91 ng/ml): 80.5% | inhibition at 0.0156 µg/mL (BDF1 mouse splenocytes [3]; Mus musculus, Splenocyte, 48 h, Con A 5 μg/ml, compound 15.6 ng/ml): 97.1% | inhibition at 0.0625 µg/mL (BDF1 mouse splenocytes [3]; Mus musculus, Splenocyte, 48 h, Con A 5 μg/ml, compound 62.5 ng/ml): 98.9% | IC50 (BDF1 mouse splenocytes [3]; Splenocyte, Con A reaction of mouse splenocytes): 1.2 ng/mL (≈ 2.84 nM) | Suppression of the Con A reaction of mouse splenocytes (in words) (BDF1 mouse splenocytes [3]; depending on the compound concentration): significantly suppressed | IC50 ([4]; Homo sapiens, CCFR-CEM, RPMI 1640, 5 × 10^3 cells/well, MTT, 3-4 days, read-out: IC50 (ng/ml) of cell proliferation): 0.2 ng/mL (≈ 0.473 nM) | Antiproliferative activity (in words) ([4]; tumor cells (CCFR-CEM)): has an antiproliferative activity on the tumor cells | IC50 ([5]; Homo sapiens, Lu-99, RPMI 1640, 2 × 10^3 cells/well, MTT, 3-4 days, read-out: IC50 (ng/ml) of cell proliferation): 1 ng/mL (≈ 2.37 nM) | Antiproliferative activity (in words) ([5]; tumor cells (Lu-99)): has an antiproliferative activity on the tumor cells | Radioactivity cpm ± SD (BDF1 mouse splenocytes [6]): 6404 ± 403 cpm | inhibition at 0.25 µg/mL (BDF1 mouse splenocytes [6]; Mus musculus, Splenocyte, 48 h, Con A 5 μg/ml, compound 250.0 ng/ml): 98.9% | IC50 (P388 mouse leukemia cell; Mus musculus, P388, RPMI 1640, 5 × 10^2 cells/well, MTT, 3-4 days, read-out: IC50 (ng/ml) of cell proliferation): 12 ng/mL (≈ 28.4 nM) | Antiproliferative activity (in words) (P388 mouse leukemia cell; tumor cells (P388)): has an antiproliferative activity on the tumor cells | IC50 ([7]; Homo sapiens, CCD-19Lu, MEM, 2 × 10^4 cells/well, MTT, 3-4 days, read-out: IC50 (ng/ml) of cell proliferation): > 10000 ng/mL | Antiproliferative activity (in words) ([7]; normal pneumocyte CCD-19Lu): not on the normal pneumocyte CCD-19Lu
